Counter-ions that a name gives are not always drawn.

1 molecule from patent US8710062B2, “Piperazinedione compounds” (Taipei Medical University, priority 2011, dated 2014) can be followed below.

This experiment has as its system 60 Human Cancer Cell Lines (NCI-60). Description: Broad-spectrum anticancer activity (NCI-60, SRB). The note with it: mean against leukemia, NSCLC, colon, CNS, melanoma, ovarian, renal, prostate and breast cancer, 48 h, read-out: mean pIC50 (converted). It counts as cell-based. The procedure: Broad-spectrum anticancer activities were conducted by NCI/NIH following standard protocols.
Human tumor cell lines were grown in RPMI 1640 medium containing 5% fetal bovine serum and 2 mM L-glutamine. For a typical screening experiment, cells were inoculated into 96-well microtiter plates in 100 μL at the plating densities ranging from 5,000 to 40,000 cells/well depending on the doubling time of individual cell lines. After cell inoculation, the microtiter plates were incubated at 37° C., 5% CO2, 95% air and 100% relative humidity for 24 h prior to addition of experimental drugs. […]
Following drug addition, the plates were incubated for an additional 48 h at 37° C., 5% CO2, 95% air, and […]. […] Bound stain was subsequently solubilized with 10 mM trizma base, and the absorbance was read on an automated plate reader at a wavelength of 515 nm. […] Using the seven absorbance measurements [time zero, (Tz), control growth, (C), and test growth in the presence of drug at the five concentration levels (Ti)], the percentage growth was calculated at each of the drug concentrations levels. Percentage growth inhibition was calculated as: [(Ti−Tz)/(C−Tz)]×100 for concentrations for which Ti>/=Tz [(Ti−Tz)/Tz]×100 for concentrations for which Ti<Tz.
Three dose response parameters were calculated for each experimental agent. […]

`O=c1[nH]/c(=C\c2ccc(OCc3ccncc3)cn2)c(=O)[nH]/c1=C\c1ccccc1` [Compound 2, 3-benzylidene-6-((5-(pyridin-4-ylmethoxy)pyridin-2-yl)methylene)piperazine-2,5-dione methanesulfonic acid salt]: the IC50 is 52.5 nM.
